Assay results taken from US5389663A, “1-(1h-1,2,4-triazole-yl)-2-propanol compounds” (Takeda Chemical Industries, Ltd., priority 1991, dated 1995).

Columns and labels:
[1] = test system: Candida albicans IFO 0583; test: Paper disc agar diffusion, growth inhibition zone, Candida albicans IFO 0583; format: cell-based; details: Table 5, Medium A, 28° C., two-day culture, 1000 μ/ml, 8 mm disc; for zone of inhibition at 1000 µg/mL: Candida albicans, IFO0583, 48 h, read-out: Diameter of growth-inhibition zone
Experimental: Evaluation of the antifungal activities of the compound of formula (I) was conducted by the following method: a sheet of filter paper disc (manufactured by Toyo Seisakusho, 8 mm in diameter) soaked in a […] solution of a compound of formula (I) in methanol was placed on an agar plate containing various fungi, which was incubated at 28° C. for two days, and the diameter of the growth inhibition zone around the filter paper disc was measured. The following culture media were used: A: yeast nitrogen base agar medium (pH 7.0) B: Sabouraud agar medium
cpd. No. (Medium A, 28° C., two-day culture)

Candida albicans = test: Protective effect against Candida albicans infection in mice; format: in vivo, Crj:CDF1 mice; details: 168 h, minimum lethal dose of Candida albicans iv, drug once immediately after infection, survival 7 days after infection
Description: Test Method: Five-week old Crj:CDF1 mice were inoculated with the minimum lethal dose of Candida albicans intravenously. The test drug was given once immediately after infection. The effectiveness of the drug was expressed in ED50 values calculated by the Reed and Muench method from the survival rate 7 days after infection.

In the case of `CC(=C(Cn1cncn1)c1ccc(F)cc1F)S(=O)(=O)N(C)C` (single isomer, unassigned) [Compound 35, N,N-dimethyl-3-(2,4-difluorophenyl)-4-(1H-1,2,4-triazol-1-yl)-2-butene-2-sulfonamide], the “Diameter of growth-inhibition zone” value [1] was 30 mm and the ED50 (Candida albicans; po) was 20 mg/kg.

`CCCCNS(=O)(=O)[C@H](C)[C@](O)(Cn1cncn1)c1ccc(F)cc1F` [Compound 4, N-butyl-[(2R,3R)-3-(2,4-difluorophenyl)-3-hydroxy-4-(1H-1,2,4-triazol-1-yl)-2-butane]sulfonamide] showed a zone of inhibition at 1000 µg/mL [1] of 40 mm and an ED50 (Candida albicans; po) of 7.07 mg/kg.

For `C[C@H]([C@](O)(Cn1cncn1)c1ccc(F)cc1F)S(=O)(=O)NC1CCCCC1` [Compound 6, N-cyclohexyl-[(2R,3R)-3(2,4-difluorophenyl)-3-hydroxy-4-(1H-1,2,4-triazol-1-yl)-2-butane]sulfonamide], the zone of inhibition at 1000 µg/mL [1] was 40 mm and the ED50 (Candida albicans; po) was 7.07 mg/kg.

In the case of `C[C@H]([C@](O)(Cn1cncn1)c1ccc(F)cc1F)S(=O)(=O)N1CCOCC1` [Compound 8, 4-[(2R,3R)-3-(2,4-difluorophenyl)-3-hydroxy-4-(1H-1,2,4-triazol-1-yl)-2-butylsulfonyl]morpholine], the zone of inhibition at 1000 µg/mL [1] was 40 mm, the ED50 (Candida albicans; po) was 20 mg/kg and the ED50 (Candida albicans; sc) was 28.3 mg/kg.

For `C[C@H]([C@](O)(Cn1cncn1)c1ccc(F)cc1F)S(=O)(=O)NC1CC1` [Compound 10, N-cyclopropyl-[(2R,3R)-3-(2,4-difluorophenyl)-3-hydroxy-4-(1H-1,2,4-triazol-1-yl)-2-butane]sulfonamide], the zone of inhibition at 1000 µg/mL [1] was 35 mm, the ED50 (Candida albicans; po) was 7.07 mg/kg and the ED50 (Candida albicans; sc) was 14.1 mg/kg.

For `CNS(=O)(=O)[C@H](C)[C@](O)(Cn1cncn1)c1ccc(F)cc1F` [Compound 12, N-methyl-[(2R,3R)-3-(2,4-difluorophenyl)-3-hydroxy-4(1H -1,2,4-triazol-1-yl)-2-butane]sulfonamide], the zone of inhibition at 1000 µg/mL [1] was 37 mm and the ED50 (Candida albicans; po) was 5 mg/kg.

`CCNS(=O)(=O)[C@H](C)[C@](O)(Cn1cncn1)c1ccc(F)cc1F` [Compound 14, N-ethyl-[(2R,3R)-3-(2,4-difluorophenyl)-3-hydroxy-4-(1H-1,2,4-triazol-1-yl)-2-butane]sulfonamide] showed a zone of inhibition at 1000 µg/mL [1] of 38 mm and an ED50 (Candida albicans; po) of 5 mg/kg.

`CCCNS(=O)(=O)[C@H](C)[C@](O)(Cn1cncn1)c1ccc(F)cc1F` [Compound 16, N-propyl-[(2R,3R)-3-(2,4-difluorophenyl)-3-hydroxy-4-(1H-1,2,4-triazol-1-yl)-2butane]sulfonamide] gave a zone of inhibition at 1000 µg/mL [1] of 40 mm and an ED50 (Candida albicans; po) of 5 mg/kg.

With `C[C@H]([C@](O)(Cn1cncn1)c1ccc(F)cc1F)S(=O)(=O)NCC(F)(F)F` [Compound 39, N-(2,2,2-trifluoroethyl)-[(2R,3R)-3-(2,4-difluorophenyl)-3-hydroxy-4-(1H-1,2,4-triazol-1-yl)-2-butane]sulfonamide] the zone of inhibition at 1000 µg/mL [1] was 40 mm and the ED50 (Candida albicans; po) was 8 mg/kg.

In the case of `C[C@H]([C@](O)(Cn1cncn1)c1ccc(F)cc1F)S(=O)(=O)N(C)CC(F)(F)F` [Compound 46, N-methyl-N-(2,2,2-trifluoroethyl)-[(2R,3R)-3-(2,4-difluorophenyl)-3-hydroxy-4-(1H-1,2,4-triazol-1-yl)-2-butane]sulfonamide], the zone of inhibition at 1000 µg/mL [1] was 45 mm and the ED50 (Candida albicans; po) was 8 mg/kg.

For `CCN(C)S(=O)(=O)[C@H](C)[C@](O)(Cn1cncn1)c1ccc(F)cc1F` [Compound 48, N-ethyl-N-methyl[(2R,3R)-3-(2,4-difluorophenyl)-3-hydroxy-4-(1H-1,2,4-triazol-1-yl)-2-butane]sulfonamide], the zone of inhibition at 1000 µg/mL [1] was 48 mm and the ED50 (Candida albicans; po) was 11.3 mg/kg.

`C[C@@H](NS(C)(=O)=O)[C@](O)(Cn1cncn1)c1ccc(F)cc1F` [Compound 49, N-[(2R,3R)-3-(2,4-difluorophenyl)-3-hydroxy-4-(1H-1,2,4-triazol-1-yl)-2-butyl]methanesulfonamide] was tested, and the zone of inhibition at 1000 µg/mL [1] was 30 mm and the ED50 (Candida albicans; po) was 1.8 mg/kg.

Work on `C[C@@H](NS(=O)(=O)c1ccc([N+](=O)[O-])cc1)[C@](O)(Cn1cncn1)c1ccc(F)cc1F` [Compound 51] yielded a zone of inhibition at 1000 µg/mL [1] of 38 mm and an ED50 (Candida albicans; po) of 8 mg/kg.

In the case of `C[C@@H](N(C)S(C)(=O)=O)[C@](O)(Cn1cncn1)c1ccc(F)cc1F` [Compound 53, N-[(2R,3R)-3-(2,4-difluorophenyl)-3-hydroxy-4-(1H-1,2,4-triazol-1-yl) -2-butyl]-N-methylmethanesulfornamide], the zone of inhibition at 1000 µg/mL [1] was 40 mm and the ED50 (Candida albicans; po) was 3.5 mg/kg.

Molecule `C[C@H]([C@](O)(Cn1cncn1)c1ccc(F)cc1F)S(=O)(=O)N(C)C/C=C\C#CC(C)(C)C` [Compound 69] has a zone of inhibition at 1000 µg/mL [1] of 42 mm.

Work on `COc1ccc(N2CCN(S(=O)(=O)[C@H](C)[C@](O)(Cn3cncn3)c3ccc(F)cc3F)CC2)cc1` [Compound 72, 4-[(2R,3R)-3-(2,4-difluorophenyl)-3-hydroxy-4-(1H-1,2,4-triazol-1-yl)-2-butanesulfonyl]-1-(4-methoxyphenyl)piperazine] yielded a zone of inhibition at 1000 µg/mL [1] of 48 mm.

In the case of `C[C@H]([C@](O)(Cn1cncn1)c1ccc(F)cc1F)S(=O)(=O)N1CCN(c2ccccn2)CC1` [Compound 74, 4-[(2R,3R)-3-(2,4-difluorophenyl)-3-hydroxy-4-(1H-1,2,4-triazol-1-yl)-2-butanesulfonyl]-1-(2-pyridyl) piperazine], the zone of inhibition at 1000 µg/mL [1] was 44 mm.

For `C[C@H]([C@](O)(Cn1cncn1)c1ccc(F)cc1F)S(=O)(=O)N(C)c1ncccn1` [Compound 77, N-methyl-N-(2-pyrimidinyl)-[(2R,3R)-3-(2,4-difluorophenyl)-3-hydroxy-4-(1H-1,2,4-triazol-1-yl)-2-butane]sulfonamide], the zone of inhibition at 1000 µg/mL [1] was 40 mm.

`C[C@H]([C@](O)(Cn1cncn1)c1ccc(F)cc1F)S(=O)(=O)N(C)Cc1ccccn1` [Compound 79] showed a zone of inhibition at 1000 µg/mL [1] of 30 mm.

With `Cc1ncsc1CCN(C)S(=O)(=O)[C@H](C)[C@](O)(Cn1cncn1)c1ccc(F)cc1F` [Compound 80] the zone of inhibition at 1000 µg/mL [1] was 40 mm.

In the case of `Cc1nnc(N(C)S(=O)(=O)[C@H](C)[C@](O)(Cn2cncn2)c2ccc(F)cc2F)s1` [Compound 81], the zone of inhibition at 1000 µg/mL [1] was 40 mm.

For `CSc1nnc(CN(C)S(=O)(=O)[C@H](C)[C@](O)(Cn2cncn2)c2ccc(F)cc2F)s1` [Compound 82], the zone of inhibition at 1000 µg/mL [1] was 40 mm.

`CSc1nnc(CCN(C)S(=O)(=O)[C@H](C)[C@](O)(Cn2cncn2)c2ccc(F)cc2F)s1` [Compound 83] was tested, and the zone of inhibition at 1000 µg/mL [1] was 40 mm.

For `C[C@H]([C@](O)(Cn1cncn1)c1ccc(F)cc1F)S(=O)(=O)N(C)CCc1nnc(S(C)(=O)=O)s1` [Compound 84], the zone of inhibition at 1000 µg/mL [1] was 23 mm.

`C[C@H]([C@](O)(Cn1ccnc1)c1ccc(F)cc1F)S(=O)(=O)N(C)C` [Compound 85, N,N-dimethyl-[(2R,3R)-3-(2,4-difluorophenyl)-3-hydroxy-4-(1-imidazolyl)-2-butane]sulfonamide] was tested, and the zone of inhibition at 1000 µg/mL [1] was 45 mm.

`C[C@@H](NS(=O)(=O)c1cccs1)[C@](O)(Cn1cncn1)c1ccc(F)cc1F` [Compound 87] gave a zone of inhibition at 1000 µg/mL [1] of 38 mm.

In the case of `C[C@@H](N(C)S(=O)(=O)c1nccn1C)[C@](O)(Cn1cncn1)c1ccc(F)cc1F` [Compound 88], the zone of inhibition at 1000 µg/mL [1] was 46 mm.

In the case of `CC(=O)Nc1nc(C)c(S(=O)(=O)N(C)[C@H](C)[C@](O)(Cn2cncn2)c2ccc(F)cc2F)s1` [Compound 89], the zone of inhibition at 1000 µg/mL [1] was 35 mm.

`C[C@@H](N(C)S(=O)(=O)c1cccs1)[C@](O)(Cn1cncn1)c1ccc(F)cc1F` [Compound 90] was tested, and the zone of inhibition at 1000 µg/mL [1] was 40 mm.

Work on `C[C@H]([C@](O)(Cn1cncn1)c1ccc(F)cc1F)S(=O)(=O)N1CCN(c2ncncc2F)CC1` [Compound 92] yielded a zone of inhibition at 1000 µg/mL [1] of 53 mm.
